This is an account of results in patent US20220213135A1, “DERIVATIVES OF GLYCERO-MANNO-HEPTOSE PHOSPHATE AND THEIR USE IN MODULATING AN IMMUNE RESPONSE” (Shanghai Yao Yuan Biotechnology Co., Ltd., priority 2019, published 2022).

Assay [1] has as its target T1, ALPK1 (Mus musculus, UniProt Q9CXB8).
T1 sequence (Q9CXB8 1-1231): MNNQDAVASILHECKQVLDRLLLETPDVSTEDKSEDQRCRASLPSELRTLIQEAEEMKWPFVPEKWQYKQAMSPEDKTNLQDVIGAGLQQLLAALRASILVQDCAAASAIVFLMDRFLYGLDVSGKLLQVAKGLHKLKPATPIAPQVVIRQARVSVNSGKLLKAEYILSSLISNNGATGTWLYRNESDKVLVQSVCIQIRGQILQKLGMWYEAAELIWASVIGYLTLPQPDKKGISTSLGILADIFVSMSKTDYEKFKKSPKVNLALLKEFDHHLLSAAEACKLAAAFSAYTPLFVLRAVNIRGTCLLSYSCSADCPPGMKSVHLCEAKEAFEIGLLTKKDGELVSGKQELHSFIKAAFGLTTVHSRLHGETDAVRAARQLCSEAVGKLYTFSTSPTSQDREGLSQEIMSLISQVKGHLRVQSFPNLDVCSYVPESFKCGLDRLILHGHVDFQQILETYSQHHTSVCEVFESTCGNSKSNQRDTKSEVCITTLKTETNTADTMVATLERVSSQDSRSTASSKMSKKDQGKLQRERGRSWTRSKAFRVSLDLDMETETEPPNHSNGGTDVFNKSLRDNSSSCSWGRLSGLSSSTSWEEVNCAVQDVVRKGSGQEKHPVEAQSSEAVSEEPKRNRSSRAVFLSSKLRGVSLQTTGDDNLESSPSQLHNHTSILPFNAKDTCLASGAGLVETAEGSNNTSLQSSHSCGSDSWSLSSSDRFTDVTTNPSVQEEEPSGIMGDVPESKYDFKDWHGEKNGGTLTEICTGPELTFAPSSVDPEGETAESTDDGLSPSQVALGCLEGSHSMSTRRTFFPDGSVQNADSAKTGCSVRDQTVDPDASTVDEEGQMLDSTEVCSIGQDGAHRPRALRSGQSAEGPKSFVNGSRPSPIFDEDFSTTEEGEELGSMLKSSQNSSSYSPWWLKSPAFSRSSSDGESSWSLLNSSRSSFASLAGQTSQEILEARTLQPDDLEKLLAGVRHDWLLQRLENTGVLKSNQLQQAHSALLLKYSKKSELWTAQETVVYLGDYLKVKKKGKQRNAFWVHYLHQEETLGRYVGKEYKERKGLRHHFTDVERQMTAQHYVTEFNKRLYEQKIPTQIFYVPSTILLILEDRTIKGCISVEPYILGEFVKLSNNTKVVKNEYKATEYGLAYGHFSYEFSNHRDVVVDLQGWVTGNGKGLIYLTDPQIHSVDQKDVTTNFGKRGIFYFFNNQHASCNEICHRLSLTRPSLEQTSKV
The experiment in a line: Liver chemokine gene expression by qPCR in ALPK1 knockout and wildtype mice after oral treatment. It counts as in vivo. On the set-up: from tissue; host or cells: mouse liver (in vivo, wildtype vs ALPK1 knockout mice). The following applies: WT mice, oral 0.5 mg/kg, 4 hours, normalized to PBS treated WT mice. The procedure: FIG. 3. Compound 2 induces chemokine and cytokine expression via ALPK1. ALPK1 knockout (KO) mice and wildtype (WT) control were treated orally with either PBS or Compound 2 (0.5 mg/kg). Four hours after treatment, livers were dissected for gene expression analysis by qPCR. Expression was normalized to PBS treated WT mice.
ALPK1 knockout (KO) mice and wildtype (WT) control were treated orally with either PBS or Compound 2 (0.5 mg/kg). Four hours after treatment, livers were dissected for gene expression analysis by qPCR. Expression was normalized to PBS treated WT mice.

Assay [2] concerns hepatitis B virus AAV8-1.3 HBV. The experiment in a line: AAV8-1.3 HBV mouse model: serum HBV DNA (qPCR), HBsAg and HBeAg (ELISA). The assay is classed as in vivo. The note with it: male C57BL/6 mice, 1 mg/kg per dose, vs PBS. How it is done: FIG. 6A-C. Compound 2 reduces hepatitis infection in murine model. Compound 2 was administered (1 mg/kg PO QD) and serum levels of HBV (A), HbsAg (B), or HbeAg (C) were measured after 7 days.
On day 1, male C57BL/6 mice were intravenously (i.v) injected with hepatitis B virus AAV8-1.3 HBV (1×10^11 v/g) (Beijing Five Plus Molecular Medicine Institute). On day 56 post-injection, each mouse was treated with Compound 2 two times per week (1 mg/kg per dose) or PBS. After seven days of treatment (at day 63 post injection), mouse serum was collected for analysis by qPCR (HBV DNA) and ELISA for Hepatitis B virus surface antigen (HBsAg) and Hepatitis B e-antigen (HBeAg). […] Specifically, the Compound 1 derivatives show tissue-specific liver cell activity and strong induction of cytokine and chemokine genes while also reducing HBV DNA and antigen titers in the serum of infected mice.
On the technique in general: In qPCR the cycle at which signal appears reflects the starting amount.

The subject of assay [3] is primary mouse hepatocytes (C57/b6). Briefly: CCL2 and CCL7 gene expression by qPCR in primary mouse hepatocytes treated for 4 hours. The assay is classed as cell-based. The following applies: for CCL7 gene expression, fold change compared to no treatment (PBS) control: Compound 2 2 nanomolar to 200 nanomolar, Compound 1 200 nanomolar and 2 micromolar; for CCL2 gene expression, fold change compared to no treatment (PBS) control: normalized to GAPDH, Compound 2 200 picomolar to 200 nanomolar, Compound 1 up to 2 micromolar. How it is done:
FIG. 2. Compound 2 has unexpected biological activity in liver cells compared to H1BADP (Compound 1). Primary hepatocytes were isolated from fresh mouse livers of C57/b6 background. Cells were cultured in serum-free medium overnight before treatment with either Compound 1 or Compound 2 for 4 hours. Cells were harvested and mRNA expression analyzed by qPCR.
The reference compound, referred to herein also as “Compound 1” (HMP1BP) is an intermediate in the H1b-ADP biosynthetic pathway generated by the dephosphorylation of HBP (FIG. 1). Derivatives of Compound 1 were generated and their activities tested in primary mouse hepatocytes (C57/b6). […] Hepatocytes were first isolated from fresh C57/b6 mouse livers, transferred to serum-free medium, and cultured overnight before treatment with Compound 1 or Compound 2 for 4 hours. Liver cells were then harvested, the mRNA isolated and gene expression of C—C motif chemokine ligand 2 (CCL2) and C—C motif chemokine ligand 7 (CCL7) was analyzed by qPCR and presented as fold change compared to a no treatment (PBS) control. Gene expression was normalized to the expression of the housekeeping gene, glyceraldehyde-3-phosphate dehydrogenase (GAPDH). […] In this assay.

In assay [4] the test system is chemokine and cytokine expression in liver cells. Briefly: Chemokine and cytokine gene expression by qPCR in liver of mice after oral gavage of HMP1BP derivatives. The assay is classed as in vivo, mouse. The note with it: C57 female mice, 1 mg/kg oral gavage. How it is done: FIG. 5A-B. Oral administration of HMP1BP derivatives activates chemokine and cytokine expression in liver cells. 8 week old C57 female mice were administered saline or the indicated compounds by oral gavage, Compounds 2-7 (1 mg·kg) (A) or compounds 9, 10 (1 mg/kg), 11, 13 and 14 (0.1 mg/kg) (B) were tested. Four hours after administration of saline or compound, organs were dissected and gene expression was analyzed by qPCR for CCL2, CCL7, CXCL1, CXCL10, IFNb, IL1b, IL6, and TNFa (A) or CCL2 and CCL7 (B).
Several additional Compound 1 derivatives were tested for cytokine and chemokine gene induction in hepatocytes. […] Mice were treated as described above. Briefly, 8 week-old C57 female mice were separately administered (1 mg/kg) either one of Compounds 2-7 or a saline/DMSO control by oral gavage and 4 hours later the livers were dissected and gene expression analyzed by qPCR. The gene expression results were normalized to GADPH expression. […] The additional genes tested in this experiment are: CXCL1, encoding C—X—C motif chemokine ligand 1; CXCL10, encoding C—X—C motif chemokine ligand 10; IFNb, encoding interferon beta; IL-1b, encoding interleukin 1 beta; IL6, encoding interleukin 6; and TNFα, encoding tumor necrosis factor alpha. […] All the derivatives induced CCL2 and CCL7 more than 20-fold above the control. Compound 2 induced CCL2, CCL7, CXCL10, IFNb, IL6 and TNFα each more than 20-fold.

Assay [5] has as its system CCL2 and CCL7 gene expression in kidney, esophagus, liver, lung, brain, and stomach. Briefly: CCL2 and CCL7 gene expression by qPCR in organs of mice after oral gavage. The following applies: 4 hours. The assay is classed as in vivo, mouse. The procedure:
FIG. 4. Compound 2 activates cytokine expression only in the liver. 8 week old C57 females were administrated Compound 2 by oral gavage in 200 ul of Saline and 1.5% DMSO as diluent. Four hours later, organs were dissected and gene expression of CCL2 and CCL7 was analyzed by qPCR in kidney, esophagus, liver, lung, brain, and stomach.
In this experiment, CCL7 was expressed more than 50-fold above the PBS control and CCL2 was expressed more than 20-fold above the control.

The mark [6] stands for this setting: after seven days of treatment, ELISA.
[7] abbreviates: liver, 8 week-old C57 female mice.

`CC(=O)OC[C@H](F)[C@H]1O[C@@H](OP(=O)(Oc2ccccc2)Oc2ccccc2)[C@@H](OC(C)=O)[C@@H](OC(C)=O)[C@@H]1OC(C)=O` [Compound 2, (2S,3S,4S,5S,6S)-2-((S)-2-acetoxy-1-fluoroethyl)-6-((diphenoxyphosphoryl)oxy)tetrahydro-2H-pyran-3,4,5-triyl triacetate]: the “expression of CCL2, CCL3, CCL7, and CXCL1 in liver” value in assay [1] is “induce the expression”. The “HBV DNA copy number in serum” value in assay [2] (after seven days of treatment (day 63 post injection), qPCR) is “significantly reduced HBV DNA copy number”. In assay [2] (setting [6]), the “Hepatitis B e-antigen (HBeAg) in serum” value is given as “decreased compared to the PBS control” and the “Hepatitis B surface antigen (HBsAg) in serum” value is on record as “decreased compared to the PBS control”. Also, in assay [3], the “CCL7 gene expression, fold change compared to no treatment (PBS) control” value was “induced in a dose-dependent manner” and the “CCL2 gene expression, fold change compared to no treatment (PBS) control” value is “significantly induced CCL2 expression in a dose-dependent manner”. In addition, in assay [4] (4 hours (FIG. 5A)), the “CCL7 gene induction above the control” value was “more than 20 fold”, the CXCL10 gene induction result is on record as “more than 20 fold”, the IFNb gene induction result is “more than 20 fold” and the IL6 gene induction result is “more than 20 fold”. The TNFα gene induction result in assay [4] (4 hours (FIG. 5A)) is “more than 20 fold”. Moreover, in assay [4] (4 hours, normalized to GADPH (FIG. 5A)), the “CCL2 gene induction above the control” value was “more than 20 fold”. The “cytokine and chemokine gene expression in other organs” value in assay [5] (kidney, esophagus, lung, brain, stomach) was “No other organ tissue analyzed showed cytokine and chemokine gene expression”. In assay [5] (setting [7]), the “CCL2 gene expression above the control” value is recorded as “more than 20 fold” and the “CCL7 gene expression above the PBS control” value is recorded as “more than 50 fold”.

Regarding `CC(=O)OC[C@H](F)C1O[C@@H](OP(=O)(N[C@@H](C)C(=O)OC(C)C)Oc2ccccc2)C(OC(C)=O)[C@@H](OC(C)=O)[C@@H]1OC(C)=O` (stereo partly drawn) [Compound 4, (2S,3S,4S,5S,6S)-2-((S)-2-acetoxy-1-fluoroethyl)-6-(((((S)-1-isopropoxy-1-oxopropan-2-yl)amino)(phenoxy)phosphoryl)oxy)tetra-hydro-2H-pyran-3,4,5-triyl triacetate], the IFNb gene induction entry in assay [4] (4 hours (FIG. 5A)) is “strong inductive effect”.

Regarding `O=P(O)(O)O[C@@H]1O[C@H]([C@H](O)CO)[C@@H](O)[C@H](O)[C@@H]1O` [Compound 1, (2S,3S,4S,5S,6R)-6-((R)-1,2-dihydroxyethyl)-3,4,5-trihydroxytetrahydro-2H-pyran-2-yl dihydrogen phosphate], the “CCL2 gene expression at the highest concentration tested” value in assay [3] (2 micromolar) is given as “only similar to that induced by the lowest concentration (200 picomolar) of Compound 2”. Moreover, in assay [3], the “CCL7 gene expression, fold change compared to no treatment (PBS) control” value was “only a much smaller induction in CCL7 gene expression” and the “CCL2 gene expression, fold change compared to no treatment (PBS) control” value is recorded as “did not significantly induces CCL2 expression relative to the PBS control except at the highest concentration tested”.
